Where two headings read alike, the source gives them in different places.
Target: T1, GLP-1R (Homo sapiens, UniProt P43220)
T1 construct: host or cells: GLP-1R CRE-bla CHO-K1 cells
Assay: EC20 GLP-1(9-36) PAM cAMP assay: dose response of compound in the presence of fixed concentration of GLP-1(9-36)
Assay type: cell-based
Conditions: GLP-1R CRE-bla CHO-K1 cells, read-out: EC20 GLP-1(9-36) PAM EC50
Procedure, shortened: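 GLP-1R CRE-bla CHO-K1 cells treated 30 min at 37 °C with 12-point compound dose response plus fixed EC20 GLP-1(9-36), with IBMX, in HBSS/HEPES/0.1% BSA pH 7.4. Total cAMP measured by luminescent detection against standard curve; EC50 and Emax from non-linear regression.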

[1] = compound dose response with fixed concentration of GLP-1(9-36)
[2] = dose response of compound in presence of fixed concentration of GLP-1(9-36)

T1 sequence (P43220 24-463): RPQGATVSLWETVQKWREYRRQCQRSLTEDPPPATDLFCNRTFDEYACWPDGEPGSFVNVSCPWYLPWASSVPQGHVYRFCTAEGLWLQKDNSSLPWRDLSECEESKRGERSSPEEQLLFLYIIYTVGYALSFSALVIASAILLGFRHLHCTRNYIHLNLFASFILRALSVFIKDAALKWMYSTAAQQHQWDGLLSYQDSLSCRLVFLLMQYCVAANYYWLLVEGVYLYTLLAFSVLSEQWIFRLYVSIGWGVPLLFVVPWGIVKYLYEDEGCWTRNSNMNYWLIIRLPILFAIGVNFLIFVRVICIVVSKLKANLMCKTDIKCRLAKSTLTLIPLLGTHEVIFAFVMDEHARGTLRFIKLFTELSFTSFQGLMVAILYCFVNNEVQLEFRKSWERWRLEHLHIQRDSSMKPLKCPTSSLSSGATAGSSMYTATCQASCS
T1 sequence (P01275 100-127 partner limits assumed): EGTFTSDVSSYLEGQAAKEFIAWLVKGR

SMILES	EC50 [1] [nM]	EC50 [2] [nM]
CCCCc1ccc(C2CCN(c3cnc(-c4ccc(C[C@H](NC(=O)c5ccc(C(C)(C)C)s5)C(=O)N5CC(C(=O)O)C5)cc4)nc3)CC2)cc1 [Compound 1412, (S)-1-(2-(5-(tert-butyl)thiophene-2-carboxamido)-3-(4-(5-(4-(4-butylphenyl)-piperidin-1-yl)pyrimidin-2-yl)phenyl)propanoyl)azetidine-3-carboxylic acid]	< 800	
CCCOc1ccc(C(=O)N[C@@H](Cc2ccc(-c3ncc(-c4ccc(OCCCC(C)C)cc4)cn3)cc2)C(=O)N2CC(C(=O)O)C2)cc1 [Compound 1235]	2500 to 5000	
CCOc1ccc(-c2ccc(-c3cnc(-c4ccc(C[C@H](NC(=O)c5ccc(C(C)(C)C)s5)C(=O)N5CC(C(=O)O)C5)cc4)nc3)c(F)c2)cc1 [Compound 1330]	< 800	
CCCCCCCOc1ccc(-c2cnc(-c3ccc(C[C@H](NC(=O)c4ccc(C(C)(C)C)s4)C(=O)N[C@@H](CC(=O)NS(C)(=O)=O)C(=O)O)cc3)nc2)cc1 [Compound 523]		< 800
Cc1ccc(-c2cccc(-c3noc(-c4cnc(-c5ccc(C[C@H](NC(=O)c6ccc(C(C)(C)C)cc6)C(=O)NCCC(=O)O)cc5)nc4)n3)c2)cc1 [Compound 748]		2500 to 5000
CCCCCCCOc1ccc(-c2cnc(-c3ccc(C[C@H](NC(=O)c4ccc(C(C)(C)C)cc4)C(=O)N[C@@H](CN)C(=O)O)cc3)nc2)cc1 [Compound 452]		2500 to 5000
CC[C@H]1CC[C@H](c2ccc(-c3cnc(-c4ccc(C[C@@H](NC(=O)c5ccc(C(C)(C)C)s5)C(=O)O)cc4)nc3)cc2)CC1 [Compound 1392]	800 to 2500	
CCCCCCCOc1ccc(-c2cnc(-c3ccc(C[C@H](NC(=O)c4ccc(C(C)(C)C)cc4)C(=O)NC(C(=O)O)c4nc(C)oc4C)cc3)nc2)cc1 (stereo partly drawn) [Compound 536]		800 to 2500
CCCCCCCOc1ccc(-c2cnc(-c3ccc(C[C@H](NC(=O)c4ccc(C(C)(C)C)cc4)C(=O)N[C@@H](CC(=O)NCC(=O)O)C(=O)O)cc3)nc2)cc1 [Compound 480]		800 to 2500
CCCCCCNc1ccc(-c2cnc(-c3ccc(C[C@H](NC(=O)c4ccc(C(C)(C)C)cc4)C(=O)N[C@H](C)C(=O)O)cc3)nc2)cc1 [Compound 729]		800 to 2500
CCCCCCCOc1ccc(-c2cnc(-c3ccc(C[C@H](NC(=O)c4ccc(C(C)(C)C)s4)C(=O)NC(C(=O)O)C(OC)c4ccccc4)cc3)nc2)cc1 (stereo partly drawn) [Compound 890]		800 to 2500
CC(C)(C)c1ccc(C(=O)N[C@@H](Cc2ccc(-c3ncc(-c4ccc(-c5ccccc5)cc4)cn3)cc2)C(=O)N2CCC[C@H]2C(=O)O)s1 [Compound 1124]		< 800
CCC[C@H]1CC[C@H](C2CCN(c3cnc(-c4ccc(C[C@H](NC(=O)c5ccc(C(C)(C)C)s5)C(=O)N[C@@H](CCCNC(=N)N)C(=O)O)cc4)nc3)CC2)CC1 [Compound 1465]	< 800	
CCCCCCCOc1ccc(-c2cnc(-c3ccc(C[C@H](NC(=O)c4ccc(C(C)(C)C)s4)C(=O)NC(C(=O)O)c4ccc(OC)cc4)cc3)nc2)cc1 (stereo partly drawn) [Compound 619]		800 to 2500
C[C@@H](NC(=O)[C@H](Cc1ccc(-c2ncc(-c3cc(O)cc(OC(F)(F)F)c3)cn2)cc1)NC(=O)c1ccc(C(C)(C)C)s1)C(=O)O [Compound 1020]		5000 to 10000
CCCCCCCOc1ccc(-c2cnc(-c3ccc(C[C@H](NC(=O)c4ccc(C(C)(C)C)s4)C(=O)N[C@@H](Cc4ccccc4)C(=O)O)cc3)nc2)cc1 [Compound 648]		800 to 2500
CCCCCCCOc1ccc(-c2cnc(-c3ccc(C[C@H](NC(=O)c4ccc(C(=O)c5ccccc5)cc4)C(=O)N[C@H](C)C(=O)O)cc3)nc2)cc1 [Compound 981]		2500 to 5000
CCCCCCCOc1ccc(-c2cnc(-c3ccc(C[C@H](NC(=O)c4ccc(C(C)(C)C)cc4)C(=O)NC(CC(=O)O)c4ccc(OC)cc4)cc3)nc2)cc1 (stereo partly drawn) [Compound 552]		800 to 2500
C[C@@H](NC(=O)[C@H](Cc1ccc(-c2ncc(/C=C/c3ccc(Cl)cc3)cn2)cc1)NC(=O)c1ccc(C(C)(C)C)s1)C(=O)O [Compound 1250]	800 to 2500	
CCCCCCCOc1ccc(-c2cnc(-c3ccc(C[C@H](NC(=O)c4ccc(OCCC)cc4)C(=O)N4CC[C@H](C(=O)O)C4)cc3)nc2)cc1 [Compound 1097]		800 to 2500
CCCCCCCOc1ccc(-c2cnc(-c3ccc(C[C@H](NC(=O)c4ccc(C(C)(C)C)cc4)C(=O)N4CC(C(=O)O)C4)cc3)nc2)cc1 [Compound 590, (S)-1-(2-(4-(tert-butyl)benzamido)-3-(4-(5-(4-(heptyloxy)phenyl)pyrimidin-2-yl)phenyl)propanoyl)azetidine-3-carboxylic acid]		< 800
CCC[C@H]1CC[C@H](C2CCN(c3cnc(-c4ccc(C[C@H](NC(=O)c5ccc(CC)cc5)C(=O)N5CC(C(=O)O)C5)cc4)nc3)CC2)CC1 [Compound 1529]	< 800	
CSc1cccc(-c2cnc(-c3ccc(C[C@H](NC(=O)c4ccc(C(C)(C)C)s4)C(=O)N[C@H](C)C(=O)O)cc3)nc2)c1 [Compound 995]		5000 to 10000
CC(C)Sc1ccc(-c2cnc(-c3ccc(C[C@H](NC(=O)c4ccc(C(C)(C)C)s4)C(=O)N[C@H](C)C(=O)O)cc3)nc2)cc1 [Compound 1035]		800 to 2500

SMILES	EC50 [1] [nM]	EC50 [2] [nM]
C[C@@H](NC(=O)[C@H](Cc1ccc(-c2ncc(-c3ccc(OCC(C)(C)C)cc3)cn2)cc1)NC(=O)c1ccc(C(C)(C)C)cc1)C(=O)O [Compound 726]		800 to 2500
CC(C)(C)c1ccc(C(=O)N[C@@H](Cc2ccc(-c3ncc(-c4nc(-c5cccc(Oc6ccccc6)c5)no4)cn3)cc2)C(=O)NCCC(=O)O)cc1 [Compound 757]		800 to 2500
CCCCCCCOc1ccc(-c2cnc(-c3ccc(C[C@H](NC(=O)c4ccc(C(C)(C)C)cc4)C(=O)NCC(C(=O)O)c4ccccc4)cc3)nc2)cc1 (stereo partly drawn) [Compound 556]		< 800
CCCCCCCOc1ccc(-c2cnc(-c3ccc(C(NC(=O)c4ccc(C(C)(C)C)cc4)C(=O)O)cc3)nc2)cc1 (stereo not drawn) [Compound 670]		2500 to 5000
CC[C@H]1CC[C@H](c2ccc(N3CCN(c4ccc(C[C@H](NC(=O)c5ccc(C(C)(C)C)s5)C(=O)N5CC(C(=O)O)C5)cc4)CC3)cc2)CC1 [Compound 1060]		2500 to 5000
CCCCCCCOc1ccc(-c2cnc(-c3ccc(C[C@H](NC(=O)c4ccc(C(C)(C)C)s4)C(=O)NC(Cc4ccccc4)C(=O)O)cc3)nc2)cc1 (stereo partly drawn) [Compound 611]		< 800
CC(C)CCOc1ccc(-c2cnc(-c3ccc(C[C@H](NC(=O)c4ccc(C(C)(C)C)s4)C(=O)NC(C(=O)O)C(O)c4ccccc4)cc3)nc2)cc1 (stereo partly drawn) [Compound 942]		2500 to 5000
CCCCOc1ccc(-c2ccc(-c3cnc(-c4ccc(C[C@H](NC(=O)c5ccc(C(C)(C)C)s5)C(=O)N5CC(C(=O)O)C5)cc4)nc3)c(F)c2)cc1 [Compound 1332]	< 800	
CCCCCCCOc1ccc(-c2cnc(-c3ccc(C[C@H](NC(=O)c4ccc(CC)cc4)C(=O)N4CC(C(=O)O)C4)cc3)nc2)cc1 [Compound 1108]		< 800
CC(C)CCCOc1ccc(-c2cnc(-c3ccc(C[C@H](NC(=O)c4ccc(C5CC5)cc4)C(=O)N4CC(C(=O)O)C4)cc3)nc2)cc1 [Compound 1233]	800 to 2500	
CCOC1CC(c2ccc(-c3cnc(-c4ccc(C[C@H](NC(=O)c5ccc(C(C)(C)C)s5)C(=O)N[C@H](C)C(=O)O)cc4)nc3)cc2)C1 (stereo partly drawn) [Compound 1130]		800 to 2500
CCCCCCc1noc(-c2ccc(-c3cnc(-c4ccc(C[C@H](NC(=O)c5ccc(C(C)(C)C)cc5)C(=O)NCCC(=O)O)cc4)nc3)cc2)n1 [Compound 756]		5000 to 10000
CC(C)CCCOc1ccc(-c2cnc(-c3ccc(C[C@H](NC(=O)c4ccc(C(C)(C)C)s4)C(=O)N4CC[C@H](C(=O)O)C4)cc3)nc2)cc1 [Compound 773]		800 to 2500
CCCC1CCC(N2CC=C(c3cnc(-c4ccc(C[C@H](NC(=O)c5ccc(C(C)(C)C)s5)C(=O)N5CC(C(=O)O)C5)cc4)nc3)CC2)CC1 (stereo partly drawn) [Compound 1434]	5000 to 10000	
CCCc1ccc(C2CCCN(c3cnc(-c4ccc(C[C@H](NC(=O)c5ccc(C(C)(C)C)s5)C(=O)N5CC(C(=O)O)C5)cc4)nc3)CC2)cc1 (stereo partly drawn) [Compound 1507]	800 to 2500	
CC1(C)CCC(c2ccc(-c3cnc(-c4ccc(C[C@H](NC(=O)c5ccc(C(C)(C)C)s5)C(=O)N5CC(C(=O)O)C5)cc4)nc3)cc2)CC1 [Compound 1088]		< 800
CC[C@H]1CC[C@H](c2ccc(-c3cnc(-c4ccc(C[C@H](NC(=O)c5ccc(C(C)C)cc5)C(=O)N5CC(C(=O)O)C5)cc4)nc3)cc2)CC1 [Compound 1169]		< 800
CCCCCCOc1ccc(-c2cnc(-c3ccc(C[C@H](NC(=O)c4ccc(C(C)(C)C)s4)C(=O)N4CC[C@H](C(=O)O)C4)cc3)nc2)cc1 [Compound 763]		800 to 2500
CCCCCCCOc1ccc(-c2cnc(-c3ccc(C[C@H](NC(=O)c4ccc(C(C)(C)C)cc4)C(=O)NC(C)(C)C(=O)O)cc3)nc2)cc1 [Compound 409]		800 to 2500
CCCCC1CCN(C2CCN(c3cnc(-c4ccc(C[C@H](NC(=O)c5ccc(C(C)(C)C)s5)C(=O)N5CC(C(=O)O)C5)cc4)nc3)CC2)C(=O)C1 (stereo partly drawn) [Compound 1506]	5000 to 10000	
CCCCCCCOc1ccc(-c2cnc(-c3ccc(C[C@H](NC(=O)c4ccc(C(C)(C)C)s4)C(=O)N[C@H](CC(=O)O)C(=O)NC)cc3)nc2)cc1 [Compound 630]		< 800
CCCCCOc1ccc(-c2cnc(-c3ccc(C[C@H](NC(=O)c4ccc(C(C)(C)C)s4)C(=O)N4CC(C(=O)O)C4)cc3)nc2)cc1 [Compound 787]		800 to 2500
CCCCCCCOc1ccc(-c2cnc(-c3ccc(C[C@H](NC(=O)c4ccc(C(C)(C)C)s4)C(=O)N[C@H](C)C(=O)O)cc3)nc2)c(C)c1 [Compound 790]		800 to 2500
CCCCCCCOc1ccc(-c2cnc(-c3ccc(CC(NC(=O)c4ccc(C(C)(C)C)s4)C(=O)NCC4CCN(C)CC4)cc3)nc2)cc1 (stereo not drawn) [Compound 430]		5000 to 10000

Source: patent US10034886B2, “GLP-1 receptor modulators” (Celgene International II SÀRL, priority 2014, dated 2018)
